Legend:
Test in all cases: relative viability (nuclei count vs DMSO), 5 days (fraction); higher = more cells survive
BAM7 + Palbociclib = compound: CCOC1=CC=CC=C1N=NC2=C(NN(C2=O)C3=NC(=CS3)C4=CC=CC=C4)C [BAM7] + CC(=O)c1c(C)c2cnc(Nc3ccc(N4CCNCC4)cn3)nc2n(C2CCCC2)c1=O [Palbociclib] (partner 0.5 µM)
How it was run: (§1)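 Relative viability was taken as the ratio of nuclei in treated wells to nuclei in vehicle wells. Lung cancer cell lines in 1536-well plates received compounds by pin tool one day after seeding, either one drug alone or a fixed anchor-drug dose plus five library-drug doses (not always all listed) in √10 steps. Nuclei were counted on 4× images after 5 days of treatment, and values are medians of duplicate plates.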

[1] = compound: CCn1c(-c2nonc2N)nc2c(C#CC(C)(C)O)ncc(OC[C@H]3CCCNC3)c21 + CC(=O)Nc1cccc(-n2c(=O)n(C3CC3)c(=O)c3c(Nc4ccc(I)cc4F)n(C)c(=O)c(C)c32)c1 [Trametinib] (partner 0.02 µM)
How it was run: as §1

[2] = compound: CCn1c(-c2nonc2N)nc2c(C#CC(C)(C)O)ncc(OC[C@H]3CCCNC3)c21 + CC(=O)c1c(C)c2cnc(Nc3ccc(N4CCNCC4)cn3)nc2n(C2CCCC2)c1=O [Palbociclib] (partner 0.5 µM)
How it was run: as §1

[3] = compound: CCn1c(-c2nonc2N)nc2c(C#CC(C)(C)O)ncc(OC[C@H]3CCCNC3)c21 + CS(=O)(=O)N1CCN(Cc2cc3nc(-c4cccc5[nH]ncc45)nc(N4CCOCC4)c3s2)CC1 [Pictilisib] (partner 1 µM)
How it was run: as §1

Cell Line	relative viability (BAM7 + Palbociclib; first compound 0.5 µM)	relative viability (BAM7 + Palbociclib; first compound 5 µM)	relative viability (BAM7 + Palbociclib; first compound 15.81 µM)	relative viability (BAM7 + Palbociclib; first compound 50 µM)	relative viability ([1]; first compound 0.01 µM)	relative viability ([1]; first compound 0.03162 µM)	relative viability ([1]; first compound 0.1 µM)	relative viability ([1]; first compound 0.3162 µM)	relative viability ([1]; first compound 1 µM)	relative viability ([2]; first compound 0.01 µM)	relative viability ([2]; first compound 0.03162 µM)	relative viability ([2]; first compound 0.1 µM)	relative viability ([2]; first compound 0.3162 µM)	relative viability ([2]; first compound 1 µM)	relative viability ([3]; first compound 0.01 µM)	relative viability ([3]; first compound 0.03162 µM)	relative viability ([3]; first compound 0.1 µM)	relative viability ([3]; first compound 0.3162 µM)	relative viability ([3]; first compound 1 µM)
201T	0.358	0.336	0.307	0.335	0.707	0.705	0.763	0.722	0.749	0.35	0.378	0.33	0.352	0.36	0.722	0.667	0.701	0.644	0.723
A549															0.505	0.536	0.471	0.334	0.361
A-427	0.507	0.49	0.498	0.532	0.771	0.81	0.742	0.691	0.775	0.426	0.508	0.533	0.515	0.559	0.754	0.649	0.747	0.732	0.554
ABC-1	0.548	0.667	0.774	0.584						0.578		0.678	0.735	0.555	0.64	0.862	0.73	0.569	0.634
BEN	0.491	0.493	0.546	0.492	0.973	1.25	0.986	1.03	1.12	0.481	0.475	0.432	0.463	0.474	0.565	0.584	0.489	0.574	0.596
CAL-12T	0.593	0.372	0.419	0.513	0.303	0.388	0.322	0.317	0.297	0.39	0.448	0.468	0.462	0.553	0.327	0.374	0.351	0.306	0.329
COR-L23	0.284	0.315	0.294	0.275	0.625	0.565	0.486	0.382	0.373	0.22	0.288	0.226	0.231	0.226	0.794	0.759	0.727	0.705	0.674
COR-L 105	0.407	0.387	0.373	0.41	0.451	0.434	0.437	0.46	0.499	0.401	0.37	0.419	0.39	0.42	0.428	0.345	0.333	0.549	0.379
Calu-6															0.886	0.973	0.946	0.942	0.909
ChaGo-K-1	1.02	0.965	0.819	0.902	0.843	0.997	0.879	0.814	0.78	0.915	0.918	0.939	0.893	0.84	0.824	0.601	0.7	0.756	0.839
EBC-1															0.41	0.386	0.32	0.343	0.262
EKVX	0.444	0.39	0.337	0.429	0.394	0.385	0.347	0.377	0.34	0.411	0.408	0.378	0.374	0.419	0.466	0.468	0.425	0.411	0.463
EMC-BAC-2	0.512	0.519	0.524	0.563	0.864		1.08	0.848	0.913	0.497	0.506	0.504	0.5	0.471	0.563	0.51	0.497	0.493	0.528
IA-LM															0.355	0.316	0.276	0.26	0.168
NCI-H522	1.19	0.986	0.649	1.16	0.826	0.763	0.783	0.667	0.82	0.9	1.12	1.22	0.781	0.916					
NCI-H596					0.797		0.821	0.785	0.878						0.398	0.344	0.366	0.377	0.436
NCI-H1299															0.817	0.954	0.773	0.76	0.753
NCI-H1563															0.689	0.618	0.686	0.615	0.633
NCI-H1648	0.303	0.257	0.264	0.375	0.46	0.474	0.481	0.417	0.418	0.266	0.272	0.235	0.262	0.317					
NCI-H1703															0.228	0.254	0.226	0.208	0.224
NCI-H2342	0.482	0.498	0.531	0.539	0.845	0.848	0.87	0.941	0.957	0.521	0.549	0.551	0.679	0.512					
SW 900		0.543		0.596	0.635	0.798	0.762	0.545	0.891	0.558	0.557	0.483	0.649	0.444					

From the supplement of paper PMC10307832
